Reference: the CheMixHub viscosity set
Where “and” joins values, the source holds several entries; their conditions need not be identical. Equal entries are not always repeated. ± gives the uncertainty stated by the source.

Test: xn = mol fraction of the nth substance listed

CC(C)CO + CC#N
viscosity [mPa·s]
Settings | x2 = 0.1676 | x2 = 0.3118 | x2 = 0.4373 | x2 = 0.5476 | x2 = 0.6442 | x2 = 0.7304 | x2 = 0.8083 | x2 = 0.8784 | x2 = 0.942 | x2 = 0.9432
298.15 K, 101.3 kPa | 1.788 ± 0.042 | 1.186 ± 0.029 | 0.87 ± 0.022 | 0.692 ± 0.018 | 0.567 ± 0.015 | 0.483 ± 0.014 | 0.434 ± 0.013 | 0.395 ± 0.012 | 0.371 ± 0.011 | –
303.15 K, 101 kPa | – | – | – | – | – | – | – | – | – | 0.5569 ± 0.25
303.15 K, 101.3 kPa | 1.582 ± 0.037 | 1.064 ± 0.026 | 0.793 ± 0.02 | 0.634 ± 0.017 | 0.532 ± 0.015 | 0.455 ± 0.013 | 0.411 ± 0.012 | 0.376 ± 0.011 | 0.362 ± 0.011 | –
308.15 K, 101.3 kPa | 1.389 ± 0.033 | 0.962 ± 0.024 | 0.725 ± 0.019 | 0.586 ± 0.016 | 0.494 ± 0.014 | 0.428 ± 0.012 | 0.39 ± 0.012 | 0.358 ± 0.011 | 0.344 ± 0.011 | –
313.15 K, 101.3 kPa | 1.232 ± 0.03 | 0.869 ± 0.022 | 0.664 ± 0.018 | 0.548 ± 0.015 | 0.461 ± 0.013 | 0.405 ± 0.012 | 0.373 ± 0.011 | 0.342 ± 0.011 | 0.324 ± 0.01 | –

C1CCC2=[NH+]CCCN2CC1.c1nc[n-]n1 + CC(C)O
303.15 K, 100 kPa
Settings | viscosity [mPa·s]
x1 = 0.1001 | 7.85 ± 0.17
x1 = 0.2 | 11.12 ± 0.24
x1 = 0.2999 | 23.38 ± 0.53
x1 = 0.4003 | 47.5 ± 1.1
x1 = 0.4989 | 98.71 ± 3.2
x1 = 0.6002 | 185.2 ± 9.1
x1 = 0.7008 | 298.3 ± 19
x1 = 0.7993 | 439.8 ± 35
x1 = 0.9002 | 746.1 ± 74

O=C1CCCN1C1CCCCC1 + O
298.15 K, 100 kPa
Settings | viscosity [mPa·s]
x1 = 0.01 | 1.219 ± 0.016
x1 = 0.0196 | 1.621 ± 0.019
x1 = 0.0303 | 2.139 ± 0.023
x1 = 0.0392 | 2.582 ± 0.026
x1 = 0.0484 | 3.059 ± 0.03
x1 = 0.0565 | 3.503 ± 0.035
x1 = 0.0683 | 4.138 ± 0.042
x1 = 0.079 | 4.749 ± 0.05
x1 = 0.0878 | 5.762 ± 0.061
x1 = 0.0982 | 5.739 ± 0.06
x1 = 0.2023 | 10.42 ± 0.13
x1 = 0.2989 | 12.86 ± 0.17
x1 = 0.3988 | 13.62 ± 0.18
x1 = 0.498 | 13.33 ± 0.18
x1 = 0.5984 | 12.65 ± 0.16
x1 = 0.7063 | 11.87 ± 0.15
x1 = 0.7985 | 11.27 ± 0.14
x1 = 0.8996 | 10.76 ± 0.13
x1 = 0.9093 | 10.71 ± 0.13
x1 = 0.9161 | 10.68 ± 0.13
x1 = 0.928 | 10.65 ± 0.13
x1 = 0.9365 | 10.61 ± 0.13
x1 = 0.9461 | 10.58 ± 0.13
x1 = 0.9574 | 10.52 ± 0.13
x1 = 0.9675 | 10.5 ± 0.13
x1 = 0.9784 | 10.46 ± 0.13
x2 = 0.0112 | 10.41 ± 0.13

CCCCCOC(C)=O + Oc1ccccc1
Settings | viscosity [mPa·s]
298.15 K, 101 kPa, x2 = 0.5 | 1.105 ± 0.011

CCCCCC + Cc1ccccc1
Settings | viscosity
298.15 K, 101 kPa, x1 = 0.1 | 0.5021 ± 0.0065 mPa·s
298.15 K, 101 kPa, x1 = 0.121 | 0.504 ± 0.014 mPa·s
298.15 K, 101 kPa, x1 = 0.2 | 0.4602 ± 0.0059 mPa·s
298.15 K, 101 kPa, x1 = 0.211 | 0.471 ± 0.013 mPa·s
298.15 K, 101 kPa, x1 = 0.299 | 0.443 ± 0.012 mPa·s
298.15 K, 101 kPa, x1 = 0.3 | 0.4254 ± 0.0055 mPa·s
298.15 K, 101 kPa, x1 = 0.4 | 0.3964 ± 0.0052 mPa·s
298.15 K, 101 kPa, x1 = 0.5 | 0.372 ± 0.0049 mPa·s
298.15 K, 101 kPa, x1 = 0.6 | 0.3513 ± 0.0046 mPa·s and 0.37 ± 0.01 mPa·s
298.15 K, 101 kPa, x1 = 0.7 | 0.3336 ± 0.0044 mPa·s
298.15 K, 101 kPa, x1 = 0.712 | 0.349 ± 0.01 mPa·s
298.15 K, 101 kPa, x1 = 0.799 | 0.335 ± 0.009 mPa·s
298.15 K, 101 kPa, x1 = 0.8 | 0.3186 ± 0.0042 mPa·s
298.15 K, 101 kPa, x1 = 0.9 | 0.3059 ± 0.0041 mPa·s
298.15 K, 101 kPa, x2 = 0.1483 | 0.321 ± 0.0041 mPa·s
298.15 K, 101 kPa, x2 = 0.1826 | 0.333 ± 0.0042 mPa·s
298.15 K, 101 kPa, x2 = 0.2169 | 0.34 ± 0.0043 mPa·s
298.15 K, 101 kPa, x2 = 0.2524 | 0.348 ± 0.0044 mPa·s
298.15 K, 101 kPa, x2 = 0.2897 | 0.36 ± 0.0045 mPa·s
298.15 K, 101 kPa, x2 = 0.3286 | 0.366 ± 0.0046 mPa·s
298.15 K, 101 kPa, x2 = 0.3707 | 0.377 ± 0.0047 mPa·s
298.15 K, 101 kPa, x2 = 0.4105 | 0.3865 ± 0.0048 mPa·s
298.15 K, 101 kPa, x2 = 0.4556 | 0.3985 ± 0.0049 mPa·s
298.15 K, 101 kPa, x2 = 0.5039 | 0.4115 ± 0.0051 mPa·s
298.15 K, 101 kPa, x2 = 0.552 | 0.426 ± 0.0053 mPa·s
298.15 K, 101 kPa, x2 = 0.6002 | 0.44 ± 0.0054 mPa·s
298.15 K, 101 kPa, x2 = 0.6539 | 0.457 ± 0.0056 mPa·s
298.15 K, 101 kPa, x2 = 0.6976 | 0.471 ± 0.0058 mPa·s
298.15 K, 101 kPa, x2 = 0.7444 | 0.486 ± 0.0059 mPa·s
298.23 K, 100 kPa, x1 = 0.5 | 0.3708 ± 0.03 mPa·s
298.28 K, 100 kPa, x1 = 0.25 | 0.4404 ± 0.035 mPa·s
298.3 K, 100 kPa, x1 = 0.75 | 0.3227 ± 0.026 mPa·s
303.15 K, 101.33 kPa, x1 = 0.0826 | 0.4983 ± 0.0051 mPa·s
303.15 K, 101.33 kPa, x1 = 0.1685 | 0.4637 ± 0.0049 mPa·s
303.15 K, 101.33 kPa, x1 = 0.2578 | 0.4362 ± 0.0046 mPa·s
303.15 K, 101.33 kPa, x1 = 0.3509 | 0.4117 ± 0.0044 mPa·s
303.15 K, 101.33 kPa, x1 = 0.4477 | 0.3884 ± 0.0042 mPa·s
303.15 K, 101.33 kPa, x1 = 0.5487 | 0.3671 ± 0.004 mPa·s
303.15 K, 101.33 kPa, x1 = 0.6541 | 0.3492 ± 0.0039 mPa·s
303.15 K, 101.33 kPa, x1 = 0.7643 | 0.3299 ± 0.0037 mPa·s
303.15 K, 101.33 kPa, x1 = 0.8795 | 0.3136 ± 0.0036 mPa·s
308.15 K, 101 kPa, x1 = 0.121 | 0.448 ± 0.012 mPa·s
308.15 K, 101 kPa, x1 = 0.211 | 0.42 ± 0.012 mPa·s
308.15 K, 101 kPa, x1 = 0.299 | 0.395 ± 0.011 mPa·s
308.15 K, 101 kPa, x1 = 0.448 | 0.361 ± 0.01 mPa·s
308.15 K, 101 kPa, x1 = 0.6 | 0.332 ± 0.009 mPa·s
308.15 K, 101 kPa, x1 = 0.712 | 0.314 ± 0.009 mPa·s
308.15 K, 101 kPa, x1 = 0.799 | 0.302 ± 0.008 mPa·s
313.15 K, 101.33 kPa, x1 = 0.0826 | 0.4542 ± 0.0048 mPa·s
313.15 K, 101.33 kPa, x1 = 0.1685 | 0.4265 ± 0.0045 mPa·s
313.15 K, 101.33 kPa, x1 = 0.2578 | 0.4033 ± 0.0043 mPa·s
313.15 K, 101.33 kPa, x1 = 0.3509 | 0.3782 ± 0.0041 mPa·s
313.15 K, 101.33 kPa, x1 = 0.4477 | 0.3592 ± 0.004 mPa·s
313.15 K, 101.33 kPa, x1 = 0.5487 | 0.3375 ± 0.0038 mPa·s
313.15 K, 101.33 kPa, x1 = 0.6541 | 0.3202 ± 0.0036 mPa·s
313.15 K, 101.33 kPa, x1 = 0.7643 | 0.3043 ± 0.0035 mPa·s
313.15 K, 101.33 kPa, x1 = 0.8795 | 0.2896 ± 0.0034 mPa·s
323.15 K, 101 kPa, x1 = 0.121 | 0.382 ± 0.011 mPa·s
323.15 K, 101 kPa, x1 = 0.211 | 0.36 ± 0.01 mPa·s
323.15 K, 101 kPa, x1 = 0.299 | 0.341 ± 0.01 mPa·s
323.15 K, 101 kPa, x1 = 0.448 | 0.314 ± 0.009 mPa·s
323.15 K, 101 kPa, x1 = 0.6 | 0.292 ± 0.008 mPa·s
323.15 K, 101 kPa, x1 = 0.712 | 0.278 ± 0.008 mPa·s
323.15 K, 101 kPa, x1 = 0.799 | 0.255 ± 0.007 mPa·s
323.15 K, 101.33 kPa, x1 = 0.0826 | 0.4006 ± 0.0043 mPa·s
323.15 K, 101.33 kPa, x1 = 0.1685 | 0.3747 ± 0.0041 mPa·s
323.15 K, 101.33 kPa, x1 = 0.2578 | 0.3545 ± 0.0039 mPa·s
323.15 K, 101.33 kPa, x1 = 0.3509 | 0.3354 ± 0.0037 mPa·s
323.15 K, 101.33 kPa, x1 = 0.4477 | 0.3184 ± 0.0036 mPa·s
323.15 K, 101.33 kPa, x1 = 0.5487 | 0.3022 ± 0.0035 mPa·s
323.15 K, 101.33 kPa, x1 = 0.6541 | 0.2867 ± 0.0033 mPa·s
323.15 K, 101.33 kPa, x1 = 0.7643 | 0.2736 ± 0.0032 mPa·s
323.15 K, 101.33 kPa, x1 = 0.8795 | 0.262 ± 0.0031 mPa·s

C=CC(=O)OCCCC + CCCCC(C)O
viscosity [mPa·s], 101 kPa
Settings | 298.15 K | 308.15 K
x1 = 0.05546 | 3.742 ± 0.03 | 2.694 ± 0.026
x1 = 0.0999 | 3.477 ± 0.027 | 2.526 ± 0.024
x1 = 0.1555 | 3.172 ± 0.025 | 2.33 ± 0.022
x1 = 0.1999 | 2.948 ± 0.023 | 2.185 ± 0.02
x1 = 0.2554 | 2.69 ± 0.021 | 2.015 ± 0.018
x1 = 0.3 | 2.499 ± 0.019 | 1.889 ± 0.017
x1 = 0.3555 | 2.28 ± 0.018 | 1.743 ± 0.016
x1 = 0.4 | 2.119 ± 0.016 | 1.634 ± 0.015
x1 = 0.4553 | 1.934 ± 0.015 | 1.508 ± 0.013
x1 = 0.5 | 1.796 ± 0.014 | 1.413 ± 0.013
x1 = 0.5556 | 1.639 ± 0.013 | 1.304 ± 0.012
x1 = 0.5998 | 1.523 ± 0.012 | 1.222 ± 0.011
x1 = 0.6554 | 1.39 ± 0.011 | 1.128 ± 0.01
x1 = 0.6998 | 1.291 ± 0.011 | 1.057 ± 0.01
x1 = 0.7554 | 1.178 ± 0.01 | 0.957 ± 0.009
x1 = 0.8 | 1.095 ± 0.01 | 0.914 ± 0.009
x1 = 0.8554 | 0.999 ± 0.009 | 0.844 ± 0.009
x1 = 0.9 | 0.928 ± 0.009 | 0.791 ± 0.008
x1 = 0.9555 | 0.847 ± 0.008 | 0.729 ± 0.008
